From patent US20180087079A1, “METHODS OF USING CELL-CYCLE INHIBITORS TO MODULATE ONE OR MORE PROPERTIES OF A CELL CULTURE” (AMGEN INC., priority 2013, published 2018)

System: transfected CHO cells expressing recombinant human monoclonal antibody (cell line 1)
Experiment: 24-deep well culture, cell line 1: VCD, viability, titer, qP
Assay type: cell-based, Chinese hamster
Conditions: for Titer / VCD / Viability / qP: Cell Line 1
Method: Transfected CHO cells expressing a recombinant human monoclonal antibody (mAb) are cultured in 24-deep well plates with seeding density at 1×10^7/mL for five days. At certain time periods, samples of the cultures are taken and evaluated for viable cell density (VCD; expressed in 10^6 cells/mL); percent viability (as determined by trypan blue exclusion); titer of recombinant protein (expressed in grams of protein per liter of culture, or g/L, as determined by Protein A affinity HPLC); qP, or specific productivity (expressed in picograms of recombinant protein per cell per day, or pg/c/d), the presence or absence of high molecular weight substances (usually an indicator of protein aggregation; expressed as % of the total protein); and the relative percentage of Mannose 5, a major intermediate glyco-form that attaches to N297 of the mAb. N-linked glycosylation has an impact on the tertiary structure of the antibody and may affect Fc mediated antibody effector functions. The majority of the human Fc glycans are complex biantennary structures with galactose as the prevalent terminal sugar. Immature glyco-forms, such as high-mannose glycol-forms (Man5-9), are of concern due to potential higher plasma clearance rate (as compared to the clearance rate of complex glycan linked mAbs).
Compounds are further evaluated essentially as described in Example 2 herein. Briefly, transfected CHO cells expressing recombinant human monoclonal antibody (mAb; two different cell lines expressing two different mAb, referred to as cell line 1 and cell line 2) are cultured in 24-deep well plates in the presence or absence of the compounds. At specified time points, samples of the cultures are taken and evaluated for viable cell density (VCD; expressed in 10^6 cells/mL); percent viability (as determined by any method known in the art); titer of recombinant protein (expressed in grams of protein per liter of culture, or g/L, as determined by Protein A affinity HPLC); qP, or specific productivity (expressed in picograms of recombinant protein per cell per day, or pg/c/d). Additional parameters measure include the presence or absence of high molecular weight substances (usually an indicator of protein aggregation; expressed as % of the total protein); and the relative percentage of Mannose 5. For comparison purposes, Compounds A and B, which had been previously tested, were tested again.

## OC1CCN(c2ccc(Nc3ncc4c5ccncc5n(C5CCCC5)c4n3)nn2)C1 (stereo not drawn) [Compound G, 1-(6-((9-cyclopentyl-9H-pyrido[4′,3′:4,5]pyrrolo[2,3-d]pyrimidin-2-yl)amino)pyridazin-3-yl)pyrrolidin-3-ol]
5 microM, D 1
  Titer: 0.48 g/L
  VCD: 11.74 e6/mL
  Viability: 95.55%
  qP: 40.59 pg/c/d
5 microM, D 2
  Titer: 0.66 g/L
  VCD: 10.58 e6/mL
  Viability: 88.10%
  qP: 62.69 pg/c/d
5 microM, D 3
  Titer: 0.96 g/L
  VCD: 11.02 e6/mL
  Viability: 83.82%
  qP: 86.81 pg/c/d
5 microM, D 4
  Titer: 0.98 g/L
  VCD: 13.45 e6/mL
  Viability: 82.62%
  qP: 72.60 pg/c/d
10 microM, D 1
  Titer: 0.47 g/L
  VCD: 11.65 e6/mL
  Viability: 95.31%
  qP: 40.64 pg/c/d
10 microM, D 2
  Titer: 0.80 g/L
  VCD: 9.95 e6/mL
  Viability: 85.90%
  qP: 80.10 pg/c/d
10 microM, D 3
  Titer: 0.94 g/L
  VCD: 10.48 e6/mL
  Viability: 81.90%
  qP: 89.39 pg/c/d
10 microM, D 4
  Titer: 1.08 g/L
  VCD: 13.58 e6/mL
  Viability: 79.61%
  qP: 79.79 pg/c/d
Summary of Table 2
  effect on viability: minimal effects on viability
  growth arrest: reasonably sustained growth arrest

## CN(C)C1CCN(c2ccc(Nc3ncc4c(n3)C3(C=CC(C)(C)CC3)c3cnccc3-4)nn2)CC1 (stereo not drawn) [Compound H, N-(6-(4-(dimethylamino)piperidin-1-yl)pyridazin-3-yl)-4,4-dimethylspiro[cyclohex[2]ene-1,9′-pyrido[4′,3′:3,4]cyclopenta[1,2-d]pyrimidin]-2′-amine]
10 microM, D 1
  Titer: 0.47 g/L
  VCD: 11.48 e6/mL
  Viability: 95.80%
  qP: 41.24 pg/c/d
10 microM, D 2
  Titer: 0.69 g/L
  VCD: 12.58 e6/mL
  Viability: 89.83%
  qP: 55.12 pg/c/d
10 microM, D 3
  Titer: 0.94 g/L
  VCD: 13.36 e6/mL
  Viability: 87.77%
  qP: 70.60 pg/c/d
10 microM, D 4
  Titer: 0.92 g/L
  VCD: 16.49 e6/mL
  Viability: 86.93%
  qP: 56.01 pg/c/d
20 microM, D 1
  Titer: 0.47 g/L
  VCD: 10.69 e6/mL
  Viability: 95.60%
  qP: 44.27 pg/c/d
20 microM, D 2
  Titer: 0.68 g/L
  VCD: 11.08 e6/mL
  Viability: 87.70%
  qP: 61.66 pg/c/d
20 microM, D 3
  Titer: 0.92 g/L
  VCD: 10.91 e6/mL
  Viability: 82.95%
  qP: 83.98 pg/c/d
20 microM, D 4
  Titer: 0.97 g/L
  VCD: 12.99 e6/mL
  Viability: 81.36%
  qP: 74.65 pg/c/d

## Fc1ccc(-n2c3cnccc3c3cnc(Nc4ccc(N5CCNCC5)cn4)nc32)c(F)c1 [Compound I, 9-(2,4-difluorophenyl)-N-(5-(piperazin-1-yl)pyridin-2-yl)-9H-pyrido[4′,3′:4,5]pyrrolo[2,3-d]pyrimidin-2-amine]
0.625 microM, D 1
  Titer: 0.46 g/L
  VCD: 11.17 e6/mL
  Viability: 95.26%
  qP: 41.50 pg/c/d
0.625 microM, D 2
  Titer: 0.66 g/L
  VCD: 11.98 e6/mL
  Viability: 89.90%
  qP: 55.10 pg/c/d
0.625 microM, D 3
  Titer: 0.89 g/L
  VCD: 12.81 e6/mL
  Viability: 85.53%
  qP: 69.73 pg/c/d
0.625 microM, D 4
  Titer: 1.07 g/L
  VCD: 16.91 e6/mL
  Viability: 85.47%
  qP: 63.09 pg/c/d
1.25 microM, D 1
  Titer: 0.46 g/L
  VCD: 10.89 e6/mL
  Viability: 94.78%
  qP: 42.55 pg/c/d
1.25 microM, D 2
  Titer: 0.66 g/L
  VCD: 11.16 e6/mL
  Viability: 88.73%
  qP: 58.82 pg/c/d
1.25 microM, D 3
  Titer: 0.89 g/L
  VCD: 12.25 e6/mL
  Viability: 85.80%
  qP: 72.68 pg/c/d
1.25 microM, D 4
  Titer: 1.06 g/L
  VCD: 15.33 e6/mL
  Viability: 84.19%
  qP: 69.35 pg/c/d

## CC1(C)CN(c2ccc(Nc3ncc4c5ccncc5n(-c5ccc(F)cc5F)c4n3)nc2)CCN1 [Compound J, 9-(2,4-difluorophenyl)-N-(5-(3,3-dimethylpiperazin-1-yl)pyridin-2-yl)-9H-pyrido[4′,3′:4,5]pyrrolo[2,3-d]pyrimidin-2-amine]
0.625 microM, D 1
  Titer: 0.45 g/L
  VCD: 11.40 e6/mL
  Viability: 94.94%
  qP: 39.77 pg/c/d
0.625 microM, D 2
  Titer: 0.68 g/L
  VCD: 14.02 e6/mL
  Viability: 91.87%
  qP: 48.50 pg/c/d
0.625 microM, D 3
  Titer: 0.88 g/L
  VCD: 16.48 e6/mL
  Viability: 90.31%
  qP: 53.61 pg/c/d
0.625 microM, D 4
  Titer: 0.99 g/L
  VCD: 19.37 e6/mL
  Viability: 89.98%
  qP: 51.10 pg/c/d
1.25 microM, D 1
  Titer: 0.44 g/L
  VCD: 11.54 e6/mL
  Viability: 94.24%
  qP: 38.41 pg/c/d
1.25 microM, D 2
  Titer: 0.64 g/L
  VCD: 11.25 e6/mL
  Viability: 87.53%
  qP: 57.19 pg/c/d
1.25 microM, D 3
  Titer: 0.86 g/L
  VCD: 14.06 e6/mL
  Viability: 84.29%
  qP: 61.40 pg/c/d
1.25 microM, D 4
  Titer: 1.08 g/L
  VCD: 17.54 e6/mL
  Viability: 84.81%
  qP: 61.77 pg/c/d

## CC1(C)C=CC2(CC1)c1cnccc1-c1cnc(Nc3ccc(N4CCNCC4)nn3)nc12 (stereo not drawn) [Compound K, 4,4-dimethyl-N-(6-(piperazin-1-yl)pyridazin-3-yl)spiro[cyclohex[2]ene-1,9′-pyrido[4′,3′:3,4]cyclopenta[1,2-d]pyrimidin]-2′-amine]
1.25 microM, D 1
  Titer: 0.48 g/L
  VCD: 11.87 e6/mL
  Viability: 95.72%
  qP: 40.15 pg/c/d
1.25 microM, D 2
  Titer: 0.72 g/L
  VCD: 13.04 e6/mL
  Viability: 92.13%
  qP: 54.94 pg/c/d
1.25 microM, D 3
  Titer: 1.01 g/L
  VCD: 16.39 e6/mL
  Viability: 90.36%
  qP: 61.61 pg/c/d
1.25 microM, D 4
  Titer: 1.07 g/L
  VCD: 22.55 e6/mL
  Viability: 91.21%
  qP: 47.60 pg/c/d
2.5 microM, D 1
  Titer: 0.48 g/L
  VCD: 11.77 e6/mL
  Viability: 96.38%
  qP: 40.78 pg/c/d
2.5 microM, D 2
  Titer: 0.72 g/L
  VCD: 12.07 e6/mL
  Viability: 90.97%
  qP: 59.38 pg/c/d
2.5 microM, D 3
  Titer: 1.05 g/L
  VCD: 15.31 e6/mL
  Viability: 89.25%
  qP: 68.37 pg/c/d
2.5 microM, D 4
  Titer: 1.22 g/L
  VCD: 21.06 e6/mL
  Viability: 89.80%
  qP: 58.10 pg/c/d
